# Results: patent US10072003B2, “Tetrahydronaphthyridine derivatives as mGluR2-negative allosteric modulators, compositions, and their use” (Merck Sharp & Dohme Corp., priority 2014, dated 2018)
# Target: recombinant human mGluR2 (Homo sapiens (Human), UniProt Q14416)
# Experiment: FLIPR Ca2+ mobilization antagonist assay in CHO dhfr- cells expressing human mGluR2 and Gα16
# Type: cell-based
# Details: antagonist response after addition of 2,500 nM glutamate, Fluo-4 AM, FLIPR384
# Method in brief: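 CHO dhfr- cells stably co-expressing human mGluR2 and Gα16, Fluo-4 AM loaded, preincubated with compound, then challenged with 2,500 nM glutamate; Ca2+ response read by FLIPR. Maximum calcium response vs concentration fitted to four-parameter logistic for IC50.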
# recombinant human mGluR2, sequence (Q14416 19-872): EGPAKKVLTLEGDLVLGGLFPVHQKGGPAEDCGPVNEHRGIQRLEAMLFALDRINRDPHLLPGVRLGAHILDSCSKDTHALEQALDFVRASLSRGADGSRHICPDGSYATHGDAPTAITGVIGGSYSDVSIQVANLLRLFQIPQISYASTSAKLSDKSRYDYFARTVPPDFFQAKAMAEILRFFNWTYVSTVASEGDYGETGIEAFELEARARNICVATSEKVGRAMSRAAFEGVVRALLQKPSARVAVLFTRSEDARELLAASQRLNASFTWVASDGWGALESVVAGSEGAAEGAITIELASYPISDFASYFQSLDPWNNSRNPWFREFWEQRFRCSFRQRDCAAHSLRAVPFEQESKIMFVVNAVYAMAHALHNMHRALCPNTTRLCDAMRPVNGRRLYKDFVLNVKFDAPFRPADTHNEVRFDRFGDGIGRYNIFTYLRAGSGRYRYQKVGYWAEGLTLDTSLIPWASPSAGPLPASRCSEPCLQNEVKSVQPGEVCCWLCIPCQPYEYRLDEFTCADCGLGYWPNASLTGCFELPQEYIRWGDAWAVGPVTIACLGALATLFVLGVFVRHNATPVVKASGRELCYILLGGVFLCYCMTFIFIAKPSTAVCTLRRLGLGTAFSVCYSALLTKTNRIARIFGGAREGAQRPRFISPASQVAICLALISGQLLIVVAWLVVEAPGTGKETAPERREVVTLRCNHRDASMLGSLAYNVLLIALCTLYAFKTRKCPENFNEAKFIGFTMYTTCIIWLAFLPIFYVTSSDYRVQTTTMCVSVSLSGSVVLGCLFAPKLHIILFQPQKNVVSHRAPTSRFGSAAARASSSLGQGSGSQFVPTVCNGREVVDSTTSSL
row,IC50 [nM],Structure (SMILES)
1,7.4,"COc1ncc(CN2CCc3c(-c4ccc(Cl)cc4F)cc(C(N)=O)nc3C2)cn1 [Example 10-2, 4-(4-chloro-2-fluorophenyl)-7-[(2-methoxypyrimidin-5-yl)methyl]-5,6,7,8-tetrahydro-1,7-naphthyridine-2-carboxamide]"
2,132,"CC(C)(C)[C@@H]1C[C@H](CN2CCc3c(-c4ccc(F)cc4)cc(C(N)=O)nc3C2)CCO1 [Example 1-3A, 7-(((2S,4R)-2-(tert-butyl)tetrahydro-2H-pyran-4-yl)methyl)-4-(4-fluorophenyl)-5,6,7,8-tetrahydro-1,7-naphthyridine-2-carboxamide]"
